Test results published in publication PMC8197855, “Peptide/β-Peptoid Hybrids with Activity against Vancomycin-Resistant Enterococci: Influence of Hydrophobicity and Structural Features on Antibacterial and Hemolytic Properties” (International Journal of Molecular Sciences, 2021).

Assays:
[1] = tested on: HepG2 cell line ATCC HB-8065; test: Effect on HepG2 cell viability (MTT assay); format: cell-based, human; details: 48 h
Description: The effect of peptidomimetics on mammalian cell viability was determined on the HepG2 cell line ATCC HB-8065. In brief, HepG2 cells were seeded into flat-bottom 96-well plates at a concentration of 5000 cells per well. The cells were incubated for 24 h in a humidified incubator (5% CO2, 37 °C). Subsequently, the medium was removed, and the cells were incubated for 48 h in a humidified incubator (5% CO2, 37 °C) with peptidomimetics in serial dilutions. An MTT assay was then performed; in brief, after incubation with the test compounds, the culture medium was removed and fresh medium with 0.2 mg/mL MTT was then added into each well. After incubation (3 h, 37 °C, 5% CO2), the medium with MTT was removed, and 200 μL dimethyl sulfoxide was added at once to each sample. The absorbance of MTT was measured using the spectrophotometer TECAN Infinite M1000 at 540 nm. The relative viability was calculated by using the formula:ODtreated cells × 100/ODcontrol cells
The IC50 values were calculated using the program Graph Pad Prism 5.0. For all compounds, the test range was 10–1280 μg/mL.

enterococci = test: Checkerboard assay, overall synergy statements; format: cell-based, Enterococcus faecium and Enterococcus faecalis; details: for Resensitization of two vancomycin-resistant E. faecium isolates toward vancomycin / Sensitization of enterococcal isolates to gentamicin: sub-inhibitory concentrations; for Synergy with conventional antibiotics: vancomycin, gentamicin, ciprofloxacin, linezolid, rifampicin or azithromycin, synergy = FICI ≤ 0.5
Description: (§1) The strain culture preparation and final volume were the same as in the MIC assay. […] The plates were incubated for 24 h at 37 °C without shaking. […] All experiments were performed in two biological replicates.
(§2) To evaluate the effect of the combinations, the fractional inhibitory concentration index (FICI) was calculated for each combination according to:ΣFIC = FICA + FICB = (CA/MICA) + (CB/MICB)
(§3) The drug interaction was scored as follows: synergy—FICI ≤ 0.5; no interaction—FICI > 0.5–4; antagonism—FICI > 4 [40].

E. faecalis (MV269) = test: Membrane integrity, propidium iodide uptake by flow cytometry; format: cell-based, Enterococcus faecalis; details: peptidomimetics at MBC, nisin at MIC; 5 min
Description: Membrane integrity was assessed by using a propidium iodide (PI) uptake assay, as previously described. In brief, 2 μL of stationary enterococcal cultures were transferred to Falcon round-bottom tubes (14 mL; Corning), each containing 2 mL fresh BHI medium. Cultures were grown to an OD600 of 0.2 at 37 °C with shaking (180 rpm). […] Then, 15 μL of culture was transferred into 980 μL filtered phosphate-buffered saline, and then stained for 5 min with 5 μL of 0.1 mg/mL PI. After staining, the red fluorescence levels (FL3 channel) in cells were recorded by using a BD Biosciences Accuri C6 flow cytometer (Becton Dickinson). The settings of the flow cytometer were as follows: 25,000 recorded events at an FSC threshold of 15,000, and medium flow rate. The gating of the stained cell population and analysis of flow cytometry data were performed in CFlow (BD Accuri). The assessment of membrane integrity was performed in three biological replicates for each condition.

Hemolytic activity = format: cell-based, human; details: human, human red blood cells (washed, 1% suspension), 37 °C, 1% red blood cell suspension
Description: (§4) A suspension of hRBCs (Single-donor human red blood cells—washed; catalogue No. IPLA-W3 from Innovative researchTM) was washed three times with PBS buffer and centrifuged for 5 min at 2500 rpm. A two-fold serial dilution of compounds in PBS buffer was prepared. Plates (conical-bottomed 96-well plates) with 3 replicate wells per dilution, containing 1% red blood cell suspension, were prepared and dosed with the test compound to achieve a final concentration of 400 μg/mL in a total volume of 100 μL. The plates were incubated (37 °C) for 60 min with mild agitation, and then the cells were pelleted by centrifugation at 1500 rpm for 5 min. Then, the supernatants (50 μL) were transferred to a fresh 96-well plate, and then the concentration of hemoglobin was detected by measuring the OD at 405 nm. The OD of cells incubated with 1% SDS achieved 100% hemolysis, while the OD of cells incubated with PBS buffer achieved 0% hemolysis. The concentration tested was 400 μg/mL (only average values are stated in Table 3). The percent hemolysis was calculated by using the formula:Hemolysis(%) = 100 × [(Asample − Aneg.control)/(Apos. control − Aneg.control)]

[2] = tested on: E. faecium and E. faecalis isolates; test: MIC summarised over all isolates; format: cell-based, Enterococcus faecium and Enterococcus faecalis; details: summary over all isolates
Description: (§5) Overnight cultures of the enterococcal isolates were diluted in physiological saline (0.9% NaCl) to reach a turbidity of 0.5 McFarland units (Sensititre® nephelometer and the Sensititre® McFarland Standard). Bacterial suspensions were adjusted to 5 × 10^5 CFU/mL in MHB II or BHI broth containing two-fold dilutions of peptidomimetics or conventional antibiotics in a final volume of 100 µL. The plates were incubated for 24 h at 37 °C without shaking. […] All experiments were performed in three biological replicates.

human red blood cells = test: Hemolytic activity; format: cell-based; details: 60 min, 37 °C, 1% red blood cell suspension
Description: as §4

E. faecalis isolates = format: cell-based, Enterococcus faecalis; details: 24 h
Description: as §5

E. faecium isolates = format: cell-based, Enterococcus faecium; details: 24 h
Description: as §5

E. faecium ATCC 19434 = test: Broth checkerboard assay with conventional antibiotics; format: cell-based, Enterococcus faecium
Description: as §1, §2, §3

In the case of `CC(=O)N[C@@H](CCCCNC(=N)N)C(=O)N(CCC(=O)N[C@@H](CCCCNC(=N)N)C(=O)N(CCC(=O)N[C@@H](CCCCNC(=N)N)C(=O)N(CCC(=O)N[C@@H](CCCCNC(=N)N)C(=O)N(CCC(=O)N[C@@H](CCCCNC(=N)N)C(=O)N(CCC(=O)N[C@@H](CCCCNC(=N)N)C(=O)N(CCC(N)=O)[C@@H](C)C1CCCCC1)[C@@H](C)C1CCCCC1)[C@@H](C)C1CCCCC1)[C@@H](C)C1CCCCC1)[C@@H](C)C1CCCCC1)[C@@H](C)C1CCCCC1` [Compound 2, Ac-[hArg-βNsce]6-NH2], the “HepG2 IC50” value [1] is reported as 15 µg/mL, the “Resensitization of two vancomycin-resistant E. faecium isolates toward vancomycin” value (shortened to “Resensitization”) (enterococci) is reported as “this was not the case” and the “Sensitization of enterococcal isolates to gentamicin” value (“Sensitization … to gentamicin” for short) (enterococci) is reported as “did not sensitize”. For the same molecule, the “Synergy with conventional antibiotics” value (enterococci) was “no synergy”, the “Propidium iodide (PI) uptake, membrane integrity” value (“Propidium iodide (PI) uptake” below) (E. faecalis (MV269)) was “significant accumulation of PI” and the hemolysis at 60 min, 400 µg/mL (Hemolytic activity) was 98.4%. The “MIC (range) against all E. faecium and E. faecalis isolates” value [2] was 2 to 4 µg/mL.

For `CC(=O)N[C@@H](CCCCNC(=N)N)C(=O)N(CCC(=O)N[C@@H](CCCCN)C(=O)N(CCC(=O)N[C@@H](CCCCNC(=N)N)C(=O)N(CCC(=O)N[C@@H](CCCCN)C(=O)N(CCC(=O)N[C@@H](CCCCNC(=N)N)C(=O)N(CCC(=O)N[C@@H](CCCCN)C(=O)N(CCC(N)=O)[C@@H](C)c1ccccc1)[C@@H](C)C1CCCCC1)[C@@H](C)c1ccccc1)[C@@H](C)C1CCCCC1)[C@@H](C)c1ccccc1)[C@@H](C)C1CCCCC1` [Compound 5, Ac-[hArg-βNsce-Lys-βNspe]3-NH2], the “HepG2 IC50” value [1] was 73 µg/mL, the “Resensitization” value (enterococci) was “this was not the case” and the “Sensitization … to gentamicin” value (enterococci) was “did not sensitize”. The “Synergy with conventional antibiotics” value (enterococci) was “no synergy”, the “Propidium iodide (PI) uptake” value (E. faecalis (MV269)) was “less perturbation of membrane integrity” and the hemolysis at 60 min, 400 µg/mL (Hemolytic activity) was less than 10%. For the same molecule, the “Hemolysis (at 400 µg/mL)” value (human red blood cells) was 9.4% and the “MIC (range) against E. faecalis” value (E. faecalis isolates) was 4 to 16 µg/mL.

For `CCCCCCCC(=O)N[C@@H](CCCCN)C(=O)N(CCC(=O)N[C@@H](CCCCN)C(=O)N(CCC(=O)N[C@@H](CCCCN)C(=O)N(CCC(=O)N[C@@H](CCCCN)C(=O)N(CCC(=O)N[C@@H](CCCCN)C(=O)N(CCC(=O)N[C@@H](CCCCN)C(=O)N(CCC(N)=O)[C@@H](C)c1ccccc1)[C@@H](C)c1ccccc1)[C@@H](C)c1ccccc1)[C@@H](C)c1ccccc1)[C@@H](C)c1ccccc1)[C@@H](C)c1ccccc1` [Compound 10, Oct-[Lys-βNspe]6-NH2], the “MIC (range or typical value) against E. faecium” value (E. faecium isolates) was 2 to 8 µg/mL, the “Effect on the MIC of rifampicin” value (E. faecium ATCC 19434; compound supplemented at 0.25× MIC) was “no effect” and the “Reduction in the MIC of rifampicin” value (E. faecium ATCC 19434; compound supplemented at 0.5× MIC) was 4–8 fold. For the same molecule, the “HepG2 IC50” value [1] was 41 µg/mL, the “Resensitization” value (enterococci) was “this was not the case” and the “Sensitization … to gentamicin” value (enterococci) was “did not sensitize”. For the same molecule, the “Synergy with conventional antibiotics” value (enterococci) was “no synergy”, the “Propidium iodide (PI) uptake” value (E. faecalis (MV269)) was “less perturbation of membrane integrity” and the hemolysis at 60 min, 400 µg/mL (Hemolytic activity) was less than 10%. For the same molecule, the “Hemolysis (at 400 µg/mL)” value (human red blood cells) was 6.9% and the “MIC (range) against E. faecalis” value (E. faecalis isolates) was 4 to 16 µg/mL.
